Assay results from ChEMBL document CHEMBL1149326, “Inhibitors of farnesyltransferase: a rational approach to cancer chemotherapy?” (J Med Chem, 2004).
Each block holds one compound with its values, some of them ahead of it.

Key:
Rat1 = experiment: Inhibition of H-ras-transformed Rat1 cells; type: functional, cell-based; conditions: Rattus norvegicus
[1] = target: T1, Protein farnesyltransferase (Homo sapiens, UniProt P49354+P49356); experiment: Inhibitory concentration against farnesyltransferase was determined; type: protein-complex assay
[2] = target: T2, Geranylgeranyl transferase type I (Homo sapiens, UniProt P49354+P53609); experiment: Inhibition binding constant Geranylgeranyl transferase type I; type: protein-complex assay
[3] = target: T1, Protein farnesyltransferase; experiment: Effective concentration required to inhibit HDJ2 farnesylation in PSN-1 cells; type: functional, cell-based
[4] = target: T1, Protein farnesyltransferase; experiment: Inhibition binding constant against Farnesyltransferase; type: protein-complex assay
NIH3T3 = experiment: Inhibition of growth of H-ras-transformed 3T3 fibroblasts
[5] = target: T2, Geranylgeranyl transferase type I; experiment: Inhibition binding constant against Geranylgeranyl transferase type I; type: protein-complex assay

Structure (SMILES): O=C(c1ccccc1OC(F)(F)F)N1CCN(Cc2cnc[nH]2)c2ccc(-c3ccncc3)cc2C1
IC50 [1]: 24 nM

Structure (SMILES): N#Cc1ccc2cc1Oc1ccc3c(c1)[C@@H](CCC3)N1CC[C@@H](NCc3cncn3C2)C1=O
EC50 [3]: 0.18 nM
IC50 [1]: < 1 nM

Structure (SMILES): N#Cc1ccc2cc1Oc1ccc3cccc(c3c1)N1CCN(CC1=O)Cc1cncn1C2
IC50 [1]: 0.2 nM

Structure (SMILES): CC(=O)N1CCC(=C2c3ccc(Cl)cc3CCc3cccnc32)CC1 [SCH-37370]
IC50 [1]: 27000 nM

Further lines, with some results ahead:

IC50 (Rat1): 630 nM
Structure (SMILES): CC[C@@H](C)[C@@H](CN(CC(=O)N[C@@H](CCSC)C(=O)OC)Cc1cccc2ccccc12)NC(=O)Cc1cncn1Cc1ccc(C#N)cc1

IC50 [1]: 1.8 nM
Structure (SMILES): CC[C@@H](C)[C@@H](CO[C@@H](Cc1ccccc1)C(=O)N[C@@H](CCS(C)(=O)=O)C(=O)O)NC[C@@H](N)S

IC50 [2]: 54 nM
Structure (SMILES): COC(=O)[C@H](CC(C)C)NC(=O)c1ccc(NC[C@@H](N)CS)cc1-c1cccc2ccccc12

Ki [4]: < 1 nM
Ki [5]: 8 nM
Structure (SMILES): CSCC[C@H](NC(=O)c1cc(NC[C@@H]2C[C@H](SC(=O)c3cccnc3)CN2)ccc1CCc1ccc(F)cc1)C(=O)OC(C)C
IC50 (NIH3T3): 49 nM
